The values that follow come from patent US7943795B2, “Vitamin D receptor modulators” (Eli Lilly and Company, priority 2004, dated 2011).

Test [1] concerns IL-10 production in PBMCs. Briefly: IL-10 induction assay. The format is cell-based. The settings on record: PBMC; TPA/PHA stimulated human PBMCs, IL-10 in supernatant by immunoassay. An excerpt: 7. The IL-10 induction assay is described in the “Assay” section of the Description, infra.
The IL-10 Induction Assay
This is an in vitro efficacy assay for psoriasis, abscess and adhesion. Psoriasis involves both keratinocytes and immune cells. IL-10 is a unique cytokine because it is anti-inflammatory and immunosuppressive. This assay tells us whether a VDRM is able to function as an agonist in PBMCs (primary blood mononuclear cells) or not. A lower EC50 value is desirable in this assay since a compound with a lower EC50 value will be a better agonist in PBMCs. An acceptable test result is an EC50 value of less than 200 nM. Preferred assay results are EC50 values of less than 100 nM.
Isolation of Peripheral Blood Mononuclear Cells (PBMCs):
Collect 50 ml of human blood and dilute with media, RPMI-1640. Add diluted blood to sterile tubes with ficol. Centrifuge the tubes. Discard the top layer and collect the cells from middle layer. Divide all cells into four tubes and add media. Centrifuge. Aspirate off media and resuspend the cells. Collect all cells. Centrifuge at 1200 rpm for 10 m. Resuspend the cells in RPMI-1640 with 2% FBS and then count cells.
Stimulation of PBMC: Prepare TPA in DMSO. Dissolve PHA in water. Plate TPA/PHA treated PBMCs in well plates. Incubate the cells.
Treatment: Prepare all compound dilutions in plain RPMI-1640 media. Add diluted compound and incubate. Sample Collection and assay: Remove all the cells by centrifugation and assay the supernatant for IL-10 by immunoassay using anti-human IL-10 antibody coated beads, as described by the manufacturer (Linco Research Inc., St. Charles, Mo.).

Test [2] concerns KERtr cells (Human skin keratinocyte). Briefly: Keratinocyte proliferation assay. The format is cell-based. The note with it: 72 hr, BrdU incorporation, read-out: Keranocyte Proliferation IC50. As to the method: 6. The keratinocyte proliferation assay is described in the “Assay” section of the Description, infra.
The Keratinocyte Proliferation Assay
This Assay is indicative for the treatment of psoriasis. An acceptable test result is IC50 value of less than or equal to 300 nM. Preferred assay results are IC50 values of less than 100 nM.
KERtr cells (Human skin keratinocyte are transformed with a retrovirus vector, obtained from ATCC, then are plated in 96-well flat-bottomed plates (3000 cells/well) in 100 μl keratinocyte serum free medium supplemented with bovine pituitary extract in the absence of EGF (Life Technologies, Rockville, Md.) and are incubated at 37° C. for two days. The cells are treated with various concentrations of VDR ligands (ten-fold serial dilution from 10,000 nM to 0.1 nM in triplicate), dissolved in 100 μl keratinocyte serum free medium supplemented with bovine pituitary extract in the absence of EGF and are incubated at 37° C. for 72 hr. BrdU (5-bromo-2′-deoxyuridine) incorporation is analyzed as a measure of DNA replication (Cell proliferation ELISA kit, Roche Diagnostics, Indianapolis, Ind.) and absorbance is measured at […]. Potency values (IC50) values were determined as the concentration (nM) of compound that elicited a half-maximal response.
Background: Dividing cells build labelled thymidine or BrdU into new DNA.

Each structure is given as a SMILES string.

Consider `CCC(CC)(c1ccc(OCC(O)C(C)(C)C)c(C)c1)c1ccc2cc(C(=O)O)ccc2c1` (racemic) [Ex. 2, 6-{1-Ethyl-1-[4-(2-hydroxy-3,3-dimethyl-butoxy)-3-methyl-phenyl]-propyl}-naphthalene-2-carboxylic acid], for which the results for the IC50 in test [1] and in test [2] were 49 nM and 47 nM, respectively.
